Source: PubChem BioAssay AID1259407 (Chemical Carcinogenesis Research Information System (CCRIS), 2018)
Calls of active or inactive are those of the source. No rule for the calls is given here.

Tested on: CCRIS mutagenicity, Ames/micronucleus/aberration tests
Assay: CCRIS mutagenicity studies
[1] = Test System: AMES SALMONELLA TYPHIMURIUM, Strain/Indicator: TA98, Metabolic Activation: NONE, Method: STANDARD PLATE
[2] = Test System: AMES SALMONELLA TYPHIMURIUM, Strain/Indicator: TA100, Metabolic Activation: NONE, Method: STANDARD PLATE
[3] = Test System: AMES SALMONELLA TYPHIMURIUM, Strain/Indicator: TA98, Metabolic Activation: RAT, LIVER, S-9, AROCLOR 1254, Method: STANDARD PLATE
[4] = Test System: AMES SALMONELLA TYPHIMURIUM, Strain/Indicator: TA98, Metabolic Activation: S-9, Method: STANDARD PLATE
[5] = Test System: AMES SALMONELLA TYPHIMURIUM, Strain/Indicator: TA100, Metabolic Activation: S-9, Method: STANDARD PLATE
[6] = Test System: AMES SALMONELLA TYPHIMURIUM, Strain/Indicator: TA1535, Metabolic Activation: NONE, Method: STANDARD PLATE
[7] = Test System: AMES SALMONELLA TYPHIMURIUM, Strain/Indicator: TA1537, Metabolic Activation: NONE, Method: STANDARD PLATE
[8] = Test System: AMES SALMONELLA TYPHIMURIUM, Strain/Indicator: TA100, Metabolic Activation: RAT, LIVER, S-9, AROCLOR 1254, Method: STANDARD PLATE

## COC1=CC(=O)c2c(nc(C)c3c4c([nH]c23)CCCC4)C1=O
Test System: AMES SALMONELLA TYPHIMURIUM, Strain/Indicator: TA97A, Metabolic Activation: NONE, Method: STANDARD PLATE
  mutagenic call: inactive; negative
Test System: AMES SALMONELLA TYPHIMURIUM, Strain/Indicator: TA97A, Metabolic Activation: RAT LIVER S-9, AROCLOR 1254, Method: STANDARD PLATE
  mutagenic call: inactive; negative
[1]
  mutagenic call: active; positive
Test System: AMES SALMONELLA TYPHIMURIUM, Strain/Indicator: TA98, Metabolic Activation: RAT LIVER S-9, AROCLOR 1254, Method: STANDARD PLATE
  mutagenic call: active; positive
[2]
  mutagenic call: inactive; negative
Test System: AMES SALMONELLA TYPHIMURIUM, Strain/Indicator: TA100, Metabolic Activation: RAT LIVER S-9, AROCLOR 1254, Method: STANDARD PLATE
  mutagenic call: inactive; negative
Test System: AMES SALMONELLA TYPHIMURIUM, Strain/Indicator: TA102, Metabolic Activation: NONE, Method: STANDARD PLATE
  mutagenic call: inactive; negative
Test System: AMES SALMONELLA TYPHIMURIUM, Strain/Indicator: TA102, Metabolic Activation: RAT LIVER S-9, AROCLOR 1254, Method: STANDARD PLATE
  mutagenic call: inactive; negative

## BrCC(Br)CBr
Test System: AMES SALMONELLA TYPHIMURIUM, Strain/Indicator: TA100, Metabolic Activation: RAT, LIVER, MICROSOMES, PHENOBARBITAL, NADPH COFACTORS, Method: STANDARD PLATE
  mutagenic call: active; positive
Test System: AMES SALMONELLA TYPHIMURIUM, Strain/Indicator: TA100, Metabolic Activation: RAT, LIVER, MICROSOMES, PHENOBARBITAL, Method: STANDARD PLATE
  mutagenic call: inactive; negative

## O=[N+]([O-])c1ccc(-c2nc(N(CCO)CCO)c3ccccc3n2)s1
[1]
  mutagenic call: active; positive
[2]
  mutagenic call: active; positive

## CC(O)C(=O)NCCO (stereo unspecified)
[3]
  mutagenic call: active; positive
Test System: AMES SALMONELLA TYPHIMURIUM, Strain/Indicator: TA1538, Metabolic Activation: RAT, LIVER, S-9, AROCLOR 1254, Method: STANDARD PLATE
  mutagenic call: active; positive

## Cc1snc2ccccc12
[1]
  mutagenic call: inactive; negative
[4]
  mutagenic call: inactive; negative
[2]
  mutagenic call: inactive; negative
[5]
  mutagenic call: active; positive
[6]
  mutagenic call: inactive; negative
Test System: AMES SALMONELLA TYPHIMURIUM, Strain/Indicator: TA1535, Metabolic Activation: S-9, Method: STANDARD PLATE
  mutagenic call: inactive; negative
[7]
  mutagenic call: inactive; negative
Test System: AMES SALMONELLA TYPHIMURIUM, Strain/Indicator: TA1537, Metabolic Activation: S-9, Method: STANDARD PLATE
  mutagenic call: inactive; negative

## COc1cc2c3c(c1O)-c1cc4c(cc1C[C@@H]3N(C)CC2)OCO4
Test System: AMES SALMONELLA TYPHIMURIUM, Strain/Indicator: TA100, Metabolic Activation: RAT, LIVER, S-9, PHENOBARBITAL AND BETA-NAPHTHOFLAVONE, Method: PREINCUBATION
  mutagenic call: inactive; negative

## CN(N=O)C(=O)Nc1ccc(Br)cc1
End Point: IN VITRO CHROMOSOMAL ABERRATIONS, Test System: CHINESE HAMSTER V79-E CELLS, Metabolic Activation: NONE
  mutagenic call: active; weakly positive

## Fc1ccc2cc3c(cc2c1)-c1cccc2cccc-3c12
[8]
  mutagenic call: active; positive

## CCOP(=O)(OCC)Oc1cc(-c2ccccc2)on1
[1]
  mutagenic call: inactive; negative
Test System: AMES SALMONELLA TYPHIMURIUM, Strain/Indicator: TA98, Metabolic Activation: RAT, LIVER, S-9, Method: STANDARD PLATE
  mutagenic call: inactive; negative
[2]
  mutagenic call: inactive; negative
Test System: AMES SALMONELLA TYPHIMURIUM, Strain/Indicator: TA100, Metabolic Activation: RAT, LIVER, S-9, Method: STANDARD PLATE
  mutagenic call: inactive; negative

## COc1cc(Nc2c3ccccc3nc3ccccc23)ccc1NS(C)(=O)=O
Test System: MOUSE LYMPHOMA, Strain/Indicator: L5178Y (TK+/TK-), Metabolic Activation: NONE, Method: SUSPENSION/PLATE
  mutagenic call: active; positive

## Nc1ccc(/C=C/c2ccccc2)cc1
Test System: AMES SALMONELLA TYPHIMURIUM, Strain/Indicator: TA98(1,8-DNP6), Metabolic Activation: NONE, Method: STANDARD PLATE
  mutagenic call: inactive; negative
Test System: AMES SALMONELLA TYPHIMURIUM, Strain/Indicator: TA98(1,8-DNP6), Metabolic Activation: S-9, Method: STANDARD PLATE
  mutagenic call: active; positive
Test System: AMES SALMONELLA TYPHIMURIUM, Strain/Indicator: TA98, Metabolic Activation: RAT LIVER S9, AROCLOR, Method: STANDARD PLATE
  mutagenic call: active; positive
[3]
  mutagenic call: active; positive
[4]
  mutagenic call: active; positive
[2]
  mutagenic call: inactive; negative
Test System: AMES SALMONELLA TYPHIMURIUM, Strain/Indicator: TA100, Metabolic Activation: RAT, LIVER, S9, AROCLOR, Method: STANDARD PLATE
  mutagenic call: active; positive
[8]
  mutagenic call: active; positive
Test System: AMES SALMONELLA TYPHIMURIUM, Strain/Indicator: TA100, Metabolic Activation: RAT, LIVER, S-9, PHENOBARBITAL, Method: STANDARD PLATE
  mutagenic call: active; positive
[5]
  mutagenic call: active; positive
Test System: AMES SALMONELLA TYPHIMURIUM, Strain/Indicator: TA1538, Metabolic Activation: RAT, LIVER, S-9, PHENOBARBITAL, Method: STANDARD PLATE
  mutagenic call: active; positive

## O=C(OCCBr)C(=O)OCCBr
[2]
  mutagenic call: active; positive
[8]
  mutagenic call: active; positive

## NC1CCC(CC2CCC(N)CC2)CC1 (stereo unspecified)
Test System: AMES SALMONELLA TYPHIMURIUM, Strain/Indicator: TA98, Metabolic Activation: HAMSTER, LIVER, S-9, AROCLOR 1254 (10%), Method: PREINCUBATION
  mutagenic call: inactive; negative
Test System: AMES SALMONELLA TYPHIMURIUM, Strain/Indicator: TA98, Metabolic Activation: NONE, Method: PREINCUBATION
  mutagenic call: inactive; negative
Test System: AMES SALMONELLA TYPHIMURIUM, Strain/Indicator: TA98, Metabolic Activation: RAT, LIVER, S-9, AROCLOR 1254 (10%), Method: PREINCUBATION
  mutagenic call: inactive; negative
Test System: AMES SALMONELLA TYPHIMURIUM, Strain/Indicator: TA100, Metabolic Activation: HAMSTER, LIVER, S-9, AROCLOR 1254 (10%), Method: PREINCUBATION
  mutagenic call: inactive; negative
Test System: AMES SALMONELLA TYPHIMURIUM, Strain/Indicator: TA100, Metabolic Activation: NONE, Method: PREINCUBATION
  mutagenic call: inactive; negative
Test System: AMES SALMONELLA TYPHIMURIUM, Strain/Indicator: TA100, Metabolic Activation: RAT, LIVER, S-9, AROCLOR 1254 (10%), Method: PREINCUBATION
  mutagenic call: inactive; negative
Test System: AMES SALMONELLA TYPHIMURIUM, Strain/Indicator: TA1535, Metabolic Activation: HAMSTER, LIVER, S-9, AROCLOR 1254 (10%), Method: PREINCUBATION
  mutagenic call: inactive; negative
Test System: AMES SALMONELLA TYPHIMURIUM, Strain/Indicator: TA1535, Metabolic Activation: NONE, Method: PREINCUBATION
  mutagenic call: inactive; negative
Test System: AMES SALMONELLA TYPHIMURIUM, Strain/Indicator: TA1535, Metabolic Activation: RAT, LIVER, S-9, AROCLOR 1254 (10%), Method: PREINCUBATION
  mutagenic call: inactive; negative
Test System: AMES SALMONELLA TYPHIMURIUM, Strain/Indicator: TA1537, Metabolic Activation: HAMSTER, LIVER, S-9, AROCLOR 1254 (10%), Method: PREINCUBATION
  mutagenic call: inactive; negative
Test System: AMES SALMONELLA TYPHIMURIUM, Strain/Indicator: TA1537, Metabolic Activation: NONE, Method: PREINCUBATION
  mutagenic call: inactive; negative
Test System: AMES SALMONELLA TYPHIMURIUM, Strain/Indicator: TA1537, Metabolic Activation: RAT, LIVER, S-9, AROCLOR 1254 (10%), Method: PREINCUBATION
  mutagenic call: inactive; negative

## CN1CCN=N1
[6]
  mutagenic call: active; positive

## O=[N+]([O-])c1c(-c2ccc(Cl)cc2)nc2n1CCS2
[1]
  mutagenic call: inactive; negative
[2]
  mutagenic call: active; positive
[6]
  mutagenic call: inactive; negative
[7]
  mutagenic call: active; positive
Test System: AMES SALMONELLA TYPHIMURIUM, Strain/Indicator: TA1538, Metabolic Activation: NONE, Method: STANDARD PLATE
  mutagenic call: inactive; negative
